From patent US6784178B2, “Pharmacotherapy for vascular dysfunction associated with deficient nitric oxide bioactivity” (Cornell Research Foundation, Inc., priority 2000, dated 2004)
One block for each molecule: values may come before it.

Legend:
eNOS [1] = target: T1, eNOS (Bos taurus, UniProt P29473); experiment: EPR (DEPMPO spin-trap) assessment of superoxide production by pterin-bound eNOS; format: biochemical; conditions: 7 pmol eNOS; BH4 10 μM in buffer; subsequent addition of sepiapterin 50 μM or BH2 1 mM; FIGS. 2(a)-(c)
T1 construct: made in house
Procedure: (§1) The eNOS used in Reference Examples 1, 2, 3 and 4 was made as described in Martasek, P., et al., Biochem. Biophys. Res. Commn 219, 359-365 (1996).
Assay buffer utilized contained HEPES (50 mM, pH 7.4), calcium (0.2 mM), calmodulin (10 μg/ml), NADPH (0.1 mM), L-arginine (0.1 mM), tetrahydrobiopterin (10 μM), DEPMPO (structure shown in upper right of FIG. 2(a)) (50 mM), and diethylenetriamine pentaacetic acid (DTPA) (0.1 mM). Included was 7 pmol eNOS. Incubation was for 15 min at 22° C. Subsequent addition was either of sepiapterin (50 μM) or BH2 (1 mM). The DEPMPO functions as a probe (spin-trap) that selectively captures superoxide anion. Electron paramagnetic resonance (EPR) was carried out to determine superoxide production. EPR was carried out at microwave power of 2 mW, modulation amplitude 1G, time constant 0.128 seconds, scan rate 1.6 G/s, gain 1.25×10E5, number of scans 10.

eNOS [2] = target: T2, eNOS (Bos taurus, UniProt P29473); experiment: [3H]tetrahydrobiopterin competition binding to eNOS (96-well filtration plate assay); conditions: [3H]BH4 10 pmoles, eNOS 3 pmoles, 15 minutes at 22° C., FIG. 1
T2 construct: made in house
T2 sequence (P29473 1-1205): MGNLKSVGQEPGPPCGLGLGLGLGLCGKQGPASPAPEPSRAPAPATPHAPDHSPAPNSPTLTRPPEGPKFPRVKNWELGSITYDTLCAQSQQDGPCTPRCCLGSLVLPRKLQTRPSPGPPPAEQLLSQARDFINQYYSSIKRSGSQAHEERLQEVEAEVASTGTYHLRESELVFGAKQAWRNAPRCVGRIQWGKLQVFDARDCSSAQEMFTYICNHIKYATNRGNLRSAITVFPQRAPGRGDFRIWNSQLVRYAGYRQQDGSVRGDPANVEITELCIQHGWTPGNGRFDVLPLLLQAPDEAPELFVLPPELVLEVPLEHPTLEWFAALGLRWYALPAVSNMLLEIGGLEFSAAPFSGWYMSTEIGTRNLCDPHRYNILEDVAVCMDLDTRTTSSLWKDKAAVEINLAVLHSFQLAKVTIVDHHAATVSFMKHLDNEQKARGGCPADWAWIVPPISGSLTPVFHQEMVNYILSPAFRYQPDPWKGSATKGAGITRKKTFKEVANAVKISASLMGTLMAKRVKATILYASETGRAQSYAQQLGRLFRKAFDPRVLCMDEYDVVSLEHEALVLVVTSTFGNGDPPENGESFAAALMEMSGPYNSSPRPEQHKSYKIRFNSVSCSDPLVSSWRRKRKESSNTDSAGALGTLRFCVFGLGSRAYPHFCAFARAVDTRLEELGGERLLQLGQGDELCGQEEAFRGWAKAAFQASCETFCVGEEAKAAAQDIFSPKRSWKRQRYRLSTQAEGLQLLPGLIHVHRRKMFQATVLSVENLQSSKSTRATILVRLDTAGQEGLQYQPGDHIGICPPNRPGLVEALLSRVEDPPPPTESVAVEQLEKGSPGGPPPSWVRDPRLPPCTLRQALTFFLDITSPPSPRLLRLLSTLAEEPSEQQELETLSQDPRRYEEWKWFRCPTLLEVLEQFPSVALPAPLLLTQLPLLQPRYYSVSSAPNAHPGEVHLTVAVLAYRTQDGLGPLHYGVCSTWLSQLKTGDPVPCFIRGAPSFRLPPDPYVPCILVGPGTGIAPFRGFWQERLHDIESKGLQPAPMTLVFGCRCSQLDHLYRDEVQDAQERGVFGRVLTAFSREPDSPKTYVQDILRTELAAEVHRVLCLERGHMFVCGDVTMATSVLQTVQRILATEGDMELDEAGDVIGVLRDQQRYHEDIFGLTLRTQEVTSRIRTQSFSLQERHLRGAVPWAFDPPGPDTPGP
Procedure: as §1
Increasing concentrations of unlabeled pterins were incubated for 15 minutes at 22° C. with [^3]tetrahydrobiopterin ([^3H]BH4), 10 pmoles, and eNOS, 3 pmoles, in binding buffer which is Tris.HCl, pH 7.5, (50 mM), and dithiothreitol (DTT) (1 mM), in a 100 microliter volume in each well in a 96-well filtration plate assay. The pterins used include 5,6,7,8-tetrahydrobiopterin (BH4), 7,8-dihydrobiopterin (BH2), 6-methyltetrahydrobiopterin (6 MePH4) and sepiapterin. Data which are shown in FIG. 1 are mean±SEM values of triplicate determinations. Similar results were obtained in four separate experiments. In FIG. 1, the squares denote BH4 for the naturally occurring (R)-stereoisomer of BH4 and represent BH4, the triangles represent BH2, the diamonds represent 6 MePH4, and the circles represent sepiapterin. In FIG. 1, the term “Inhibitor” in the horizontal legend means pterin analog and is generic for BH4, BH2, 6MePH4 and sepiapterin. Incubations were carried out at the concentrations indicated by the data points in FIG. 1. This experiment is to compare the ability of the named pterins to compete for [^3H]BH4 binding to eNOS.

eNOS [3] = target: T1, eNOS; experiment: Total nitrate/nitrite (Greiss assay) production by BH4- or BH2-bound eNOS from arginine or N-hydroxyarginine; format: biochemical; conditions: for production of nitric oxide (total nitrate/nitrite) from substrate by BH2-bound eNOS / production of nitric oxide (total nitrate/nitrite) from substrate by BH4-bound eNOS: substrate 100 μM, eNOS 10 pmol, 1 hour at 37° C.; for production of nitric oxide (total nitrate/nitrite) from substrate by BH2-bound eNOS: BH2 10 μM; for production of nitric oxide (total nitrate/nitrite) from substrate by BH4-bound eNOS: BH4 10 μM
Procedure: as §1
All samples were 100 microliter total volume and contained assay buffer (Tris.HCl pH 7.6 (50 mM), DTT (1 mM), calcium (100 μM), and calmodulin (100 nM)). In the assay buffer, eNOS (10 pmol), either BH4 (10 μM) or BH2 (10 μM), and either L-arginine (100 μM) or N^ω-hydroxy-L-arginine (100 μM) were introduced. In some experiments, the nitric oxide synthase inhibitor N^ω-methyl-L-arginine (NMA, 1 mM) was additionally added or the required NO synthase cofactor calmodulin was omitted (No CaM). Incubations were for 1 hour at 37° C. Total nitrate/nitrite (as a measure of nitric oxide) was measured by the Greiss assay as described in “Methods of Nitric Oxide Research,” edited by Feelisch, M. and Stamler, J. S., John Wiley & Sons Ltd. (1996) at pages 491-497. Results are shown in FIGS. 3(a), 3(b), 3(c) and 3(d). […] Data represent means±SEM values of quadruplicate determinations.

[4] = Example IV: chronic oral therapy after stroke; format: in vivo, human; conditions: oral 5 mg/kg every 4 hours, alone or combined with L-arginine 20 mg/kg every 4 hours
Procedure: A person suffers from type 2 diabetes (adult onset diabetes or insulin resistant diabetes), coronary artery disease and hypertension (a not uncommon composite of conditions), experiences a stroke resulting in acute left-sided paralysis owing to right middle cerebral artery occlusion. Surviving the stroke, the patient is placed on chronic oral therapy with N^ω-hydroxy-L-arginine, 5 mg/kg every 4 hours, or a combination of this with L-arginine, 20 mg/kg every 4 hours.

[5] = Example V: chronic oral treatment of man with mild hypertension and coronary artery atherosclerosis; format: in vivo, human; conditions: oral 5 mg/kg every 4 hours, free drug or with antioxidants/vitamins, with or without L-arginine
Procedure: He is treated with 5 mg/kg N^ω-hydroxy-L-arginine every 4 hours orally as either free drug or in admixture with antioxidant agents and vitamins (e.g., ascorbate, alpha-tocopherol, vitamin B6, vitamin B12, folate (folic acid), carotenoids, coenzyme Q10, phytoestrogens (including isoflavonoids), selenium, butylated hydroxytoluene (BHT), butylated hydroxyanisole (BHA) and n-3 polyunsaturated fatty acids (PUFA)) with or without L-arginine supplementation (20 mg/kg every 4 hours). The mixture is delivered as a nutriceutical. Blood pressure normalizes to less than 130/80 mm Hg and angiographic evidence indicates atherosclerosis progression is less than 10% additional over the next five years.

eNOS [6] = target: T1, eNOS; experiment: Concentration dependence of nitric oxide synthesis from N-hydroxyarginine by BH2- or BH4-bound eNOS; format: biochemical; conditions: eNOS 10 pmol preincubated with BH2 10 μM or BH4 10 μM; 1 hour at 37° C.; FIG. 4
Procedure: as §1
eNOS (10 pmol) was preincubated for 30 minutes at 37° C. in the presence of either BH2 (10 μM) or BH4 (10 μM) in assay buffer (Tris.HCl pH 7.6 (50 mM), DTT (1 mM), calcium (100 μM) and calmodulin (100 nM)). Then N^ω-hydroxy-L-arginine (denoted “Hydroxyarginine” in FIG. 4) was added (concentrations as disclosed in FIG. 4) and incubations were 100 microliter total volume and were allowed to proceed for 1 hour at 37° C. Nitric oxide production was assessed from accumulation of its stable oxidation products (nitrite and nitrate), quantified by a modified Greiss assay (reference recited in Reference Example 3). Data are mean±SEM values of quadruplicate determinations.

[7] = Example III: blood pressure and vascular resistance in hypertensive female; format: in vivo, human; conditions: single 10 mg/kg intravenous dose, one hour after
Procedure: A person has moderate hypertension (150/100 mm Hg) and elevated vascular resistance. One hour after receiving a single 10 mg/kg intravenous dose of N^ω-hydroxy-L-arginine, mean arterial blood pressure is diminished by 14 mm Hg and systemic vascular resistance is reduced by 10%.

[8] = Example II: treadmill test in male with coronary artery disease; format: in vivo, human; conditions: oral 10 mg/kg, within 90 minutes after dose; 3 mph, 5% incline; before treatment pain after 10 minutes
Procedure: A person with coronary artery disease develops chest pain and electrocardiographic evidence of angina after 10 minutes on a treadmill at 3 mph and 5% incline. Within 90 minutes after an oral dose of 10 mg/kg of N^ω-hydroxy-L-arginine, the subject is able to walk on the treadmill at 3 mph and 5% incline for 25 minutes without pain or evidence of […].

[9] = Example I: ointment applied to toes of male with Type I diabetes; format: in vivo, human; conditions: 1% by weight ointment four times a day
From the text: A person with Type I diabetes presents with symptoms of pain in toes and loss of pink color (gray tissue tone) in toes. An ointment containing 1% by weight N^ω-hydroxy-L-arginine is applied to the toes four times a day.

superoxide production by eNOS bound to the pterin (EPR) (eNOS [1]): activate superoxide production | affinity of binding to eNOS (competition for [3H]BH4 binding) (eNOS [2]): bind with equal affinity to eNOS
SMILES: C[C@H](O)[C@H](O)C1=Nc2c(nc(N)[nH]c2=O)NC1 [BH2, 7,8-dihydrobiopterin]

block of arginine conversion to nitric oxide by BH4-bound eNOS (eNOS [3]; NMA 1 mM added, L-arginine 100 μM): > 90% | effect on N-hydroxyarginine conversion to nitric oxide by BH2-bound eNOS (eNOS [3]; NMA 1 mM added, N-hydroxy-L-arginine 100 μM): < 30%
SMILES: CNC(=N)NCCC[C@H](N)C(=O)O [NMA, N^ω-methyl-L-arginine]

SMILES: N=C(NO)NCCC[C@H](N)C(=O)O [N^ω-hydroxy-L-arginine]
recurrence of stroke within the next two years [4]: no recurrence of stroke | atherosclerosis progression (angiographic) over the next five years [5]: less than 10% | blood pressure after treatment ([5]; baseline 140/90 mm Hg): less than 130/80 | production of nitric oxide (total nitrate/nitrite) from substrate by BH2-bound eNOS (eNOS [3]): does cause production of nitric oxide | production of nitric oxide (total nitrate/nitrite) from substrate by BH4-bound eNOS (eNOS [3]): causes production of nitric oxide | production of nitrogen oxides (nitrite and nitrate) by eNOS from the substrate (eNOS [6]): supports the production of nitrogen oxides by eNOS in the presence of either BH2 or BH4 | decrease of mean arterial blood pressure [7]: 14 mm Hg | reduction of systemic vascular resistance [7]: 10% | time able to walk on treadmill without pain or evidence of angina [8]: 25 min | blood perfusion [9]: Blood perfusion is increased | pain in toes ([9]; within 48 hours): pain diminishes | tissue colour of toes ([9]; within 48 hours): tissue becomes pinker

SMILES: N=C(N)NCCC[C@H](N)C(=O)O [arginine, L-arginine]
production of nitric oxide (total nitrate/nitrite) from substrate by BH2-bound eNOS (eNOS [3]): does not cause production of nitric oxide | production of nitric oxide (total nitrate/nitrite) from substrate by BH4-bound eNOS (eNOS [3]): causes production of nitric oxide

superoxide production by eNOS bound to the pterin (EPR) (eNOS [1]): will activate superoxide production
SMILES: C[C@H](O)C(=O)C1=Nc2c(nc(N)[nH]c2=O)NC1 [sepiapterin]
